Values after ≈ are worked out from the molar mass of the structure shown. Read-outs that look alike come from different tables or passages of the source.
Legend:
Format in all cases: cell-based
HIV-1/II(0.1) 100-Ile = assay: Sensitivity of mutant HIV-1 strain in CEM cell cultures; conditions: Table 5
Protocol: (§1) CEM cells were suspended at 250,000 cells per ml of culture medium and infected with wild-type HIV-I(IIIB) or mutant HIV-1 strains at 100 50% cell culture infective doses per ml. Then 100 μl of the infected cell suspensions was added to 200-μl microtiter plate wells containing 100 μl of an appropriate dilution of the test compounds. After 4 days incubation at 37° C., the cell cultures were examined for syncytium formation.

HIV-1/V(0.5) 103-Asn = assay: as above; conditions: Table 5
Protocol: as §1

[1] = tested on: HIV-1/V(0.1) 101-Ile + 141-Glu; assay: as above; conditions: Table 5
Protocol: as §1

HIV-1/I(0.1) 103-Asn = assay: as above; conditions: Table 5
Protocol: as §1

HIV-1/IV(0.1) 103-Thr = assay: as above; conditions: Table 5
Protocol: as §1

HIV-1/III(0.1) 103-Asn = assay: as above; conditions: Table 5
Protocol: as §1

HIV-1(IIIB) (WT) = assay: microbe, parasite or virus in culture; conditions: HIV-1 (III8), Table 5
Protocol: as §1

[2] = Human immunodeficiency virus 1, CCRF-CEM, read-out: EC50

| SMILES | EC50 (HIV-1/II(0.1) 100-Ile; [2]) [µg/mL] | EC50 (HIV-1/V(0.5) 103-Asn; [2]) [µg/mL] | EC50 [1, 2] [µg/mL] | EC50 (HIV-1/I(0.1) 103-Asn; [2]) [µg/mL] | EC50 (HIV-1/IV(0.1) 103-Thr; [2]) [µg/mL] | EC50 (HIV-1/III(0.1) 103-Asn; [2]) [µg/mL] | EC50 (HIV-1(IIIB) (WT); Human immunodeficiency virus 1, IIIB, CCRF-CEM, read-out: EC50) [µg/mL] | EC50 (HIV-1/II(0.1) 100-Ile) [µg/mL] | EC50 (HIV-1/V(0.5) 103-Asn) [µg/mL] | EC50 [1] [µg/mL] | EC50 (HIV-1/I(0.1) 103-Asn) [µg/mL] | EC50 (HIV-1/IV(0.1) 103-Thr) [µg/mL] | EC50 (HIV-1/III(0.1) 103-Asn) [µg/mL] | EC50 (HIV-1(IIIB) (WT)) [µg/mL] |
| --- | --- | --- | --- | --- | --- | --- | --- | --- | --- | --- | --- | --- | --- | --- |
| Nc1ccn([C@@H]2CS[C@H](CO)O2)c(=O)n1 [Compound 3TC, (-)-2'-deoxy-3'-thiacytidine] | 0.05 (≈ 0.218 µM) | 0.04 (≈ 0.174 µM) | 0.04 (≈ 0.174 µM) | 0.03 (≈ 0.131 µM) | 0.03 (≈ 0.131 µM) | 0.03 (≈ 0.131 µM) | 0.008 (≈ 0.0349 µM) |  |  |  |  |  |  |  |
| CCOCn1c(Cc2ccccc2)c(C(C)C)c(=O)[nH]c1=O [MKC-442] |  |  |  |  |  |  |  | 0.40 (≈ 1.32 µM) | 0.35 (≈ 1.16 µM) | 0.008 (≈ 0.0265 µM) | 0.08 (≈ 0.265 µM) | 0.32 (≈ 1.06 µM) | 0.01 (≈ 0.0331 µM) | 0.0006 (≈ 0.00198 µM) |

Reference: patent US5968910A, “Compositions containing two or three inhibitors of different HIV reverse transcriptases” (priority 1994, dated 1999)
